Data on 4 compounds can be found in ChEMBL document CHEMBL5543158, “Design of Evodiamine-Glucose Conjugates with Improved In Vivo Antitumor Activity” (J Med Chem, 2024).

The solubility is how much of the substance goes into solution per volume. Read a low solubility as little dissolved substance. Usually IC50 stands for the concentration that gives 50% inhibition.

A short description of data set [1]: Solubility of the compound in double distilled water measured upto 30 mins by UV-vis spectrophotometry. Type of data set: physicochemical.
The nature of data set [2]: Toxicity in mouse xenografted with human HCT-116 cells assessed as organ damage by measuring change in heart at 5 mg/kg, ip twice a day administered 21 consecutive days. It is filed as organism-based. The following applies: in vivo. A general note: Xenograft models place foreign cells or tissue in a host animal.
The nature of data set [3]: Toxicity in mouse xenografted with human HCT-116 cells assessed as kidney damage by measuring atrophy of glomeruli at 5 mg/kg, ip twice a day administered 21 consecutive days. It is filed as organism-based. The conditions noted are these: in vivo.
Data set [4] concerns HCT-116. Briefly: Antiproliferative activity against human HCT116 cells in presence of 5 uM phloretin measured after 72 hrs by CCK-8 assay. It is filed as functional, cell-based. The conditions noted are these: HCT-116, 72 h. (In general: Tetrazolium assays rely on reduction of a dye to a coloured formazan, in cell work by metabolically active cells.)
Data set [5] is described as follows: Toxicity in mouse xenografted with human HCT-116 cells assessed as organ damage by measuring thickened alveolar wall in lungs at 5 mg/kg, ip twice a day administered 21 consecutive days. It is filed as organism-based. The conditions noted are these: in vivo.
In data set [6] the test system is HCT-116. Briefly: In vivo antitumor effect in human HCT-116 cells xenografted mouse model assessed as tumor growth inhibition at 5 mg/kg, ip twice a day administered 21 consecutive days. It is filed as functional. The conditions noted are these: read-out: TGI.
A short description of data set [7]: Toxicity in mouse xenografted with human HCT-116 cells assessed as organ damage by measuring change in spleen at 5 mg/kg, ip twice a day administered 21 consecutive days. The following applies: in vivo. Type of data set: organism-based.
Data set [8] has as its system HCT-116. As to the kind of experiment: Antiproliferative activity against human HCT116 cells in presence of 10 uM phloretin measured after 72 hrs by CCK-8 assay. Type of data set: functional, cell-based. The following applies: HCT-116, 72 h.
Data set [9] can be described thus: Cytotoxicity against HUVEC after 72 hrs by CCK-8 assay. Type of data set: toxicity, cell-based. The following applies: human, HUVEC cells.
Data set [10] is described as follows: Toxicity in mouse xenografted with human HCT-116 cells assessed as liver damage by measuring enlarged sizes of vacuole at 5 mg/kg, ip twice a day administered 21 consecutive days. Type of data set: organism-based. The conditions noted are these: in vivo.
For data set [11], the system named is HCT-116. Briefly: Antiproliferative activity against human HCT116 cells measured after 72 hrs by CCK-8 cells. The conditions noted are these: HCT-116, 72 h. Type of data set: functional, cell-based.
The test system of the next data set is U-87 MG. As to the kind of experiment: Antiproliferative activity against human U-87 MG cells measured after 72 hrs by CCK-8 cells. It is filed as functional, cell-based, U-87MG ATCC.
Another data set deals with A549. As to the kind of experiment: Antiproliferative activity against human A549 cells measured after 72 hrs by CCK-8 cells. Type of data set: functional, cell-based. The following applies: A549, 72 h.

Structures are written as SMILES. In brackets after ≈: the same amount, converted by molar mass.

Turning to `CN1c2ccc(F)cc2C(=O)N2CCc3c([nH]c4ccc(OCc5cn(CCCO[C@@H]6O[C@H](CO)[C@@H](O)[C@H](O)[C@H]6O)nn5)cc34)[C@H]21`, the solubility at 0.5 h in data set [1] is 2020 µg/mL (≈ 3.16 mM).

As for `CN1c2ccc(F)cc2C(=O)N2CCc3c([nH]c4ccc(O)cc34)[C@H]21`, the Activity entry in [2], in data set [3], in data set [5], in data set [7] and in data set [10] was “Toxic” in each case. The compound also returned a solubility at 0.5 h in data set [1] of 145 µg/mL (≈ 0.43 mM). Also, the IC50 worked out at 54 nM with HCT-116 [4] and 545 nM in the data set with HCT-116 [8]. The inhibition in vivo at 5 mg/kg with HCT-116 [6] was determined as 51%. Also, the half-maximal inhibitory concentration (IC50) at 72 h in data set [9] turned out to be 16 nM.

For the compound `CN1c2ccc(F)cc2C(=O)N2CCc3c([nH]c4ccc(OC(=O)CCCC(=O)NCCCO[C@@H]5O[C@H](CO)[C@@H](O)[C@H](O)[C@H]5O)cc34)[C@H]21`, the IC50 in the data set with HCT-116 [11], in the data set with U-87 MG and in the data set with A549 was 54 nM each time. Moreover, in data set [1], the concentration in solution (solubility at 0.5 h) was 2470 µg/mL (≈ 3.68 mM).

Take `CN1c2ccc(F)cc2C(=O)N2CCc3c([nH]c4ccc(OC(=O)CCC(=O)NCCCO[C@@H]5O[C@H](CO)[C@@H](O)[C@H](O)[C@H]5O)cc34)[C@H]21`: the IC50 with HCT-116 [11], in the data set on U-87 MG and in the data set on A549 was 49 nM each time. For the same compound, in data set [1], the solubility at 0.5 h worked out at 1990 µg/mL (≈ 3.03 mM).
